What was measured:
Assay type in all cases: cell-based, human
pDC [1] = test: Intracellular cytokine detection following stimulation with TLR ligands (PBMC, flow cytometry), pDC; conditions: PBMC stimulated 6 h with TLR agonist
Protocol: All antibodies used for fluorescence-activated cell sorting (FACS) and flow cytometry were mouse anti-human monoclonal antibodies (mAbs), except for chicken anti-human CADM1 IgY primary mAb. Briefly, 5×10^6 cells/tube were washed and incubated with Live/Dead blue dye (Invitrogen) for 30 min at 4° C. in phosphate buffered saline (PBS) and then incubated in 5% heat-inactivated fetal calf serum (FCS) for 15 min at 4° C. (Sigma Aldrich). The appropriate antibodies diluted in PBS with 2% fetal calf serum (FCS) and 2 mM EDTA were added to the cells and incubated for 30 min at 4° C., and then washed and detected with the secondary reagents. For intra-cytoplasmic or intra-nuclear labeling or staining, cells were fixed and permeabilized with BD Cytofix/Cytoperm (BD Biosciences) or with eBioscience FoxP3/Transcription Factor Staining Buffer Set (eBioscience/Affimetrix), respectively according to the manufacturer's instructions. Flow cytometry was performed using a BD LSRII or a BD FACSFortessa (BD Biosciences) and the data analyzed using BD FACSDiva 6.0 (BD Biosciences) or FlowJo v.10 (Tree Star Inc.). For isolation of precursor dendritic cells (pre-DC), PBMC were first depleted of T cells, monocytes and B cells with anti-CD3, anti-CD14 and anti-CD20 microbeads (Miltenyi Biotec) using an AutoMACS Pro Separator (Miltenyi Biotec) according to the manufacturer's instructions. […]

pre-DC = test: Luminex Drop Array assay on sorted and stimulated pre-DC, culture supernatants; conditions: TLR7/8 or TLR9 stimulation; FIG. 2G and FIG. 13
Protocol: (§1) A total of 2,000 cells/well of sorted pre-DC and DC subsets were seeded in V-bottom 96 well plates and then incubated for 18 h in 50 μL complete RPMI-1640 Glutmax media (Life Technologies) supplemented with 10% FBS and 1% penicillin/streptomycin, and stimulated with either LPS, LPS+IFNγ, Flagellin, polyI:C, Imidazoquinoline or CpG oligodeoxynucleotides (ODN) 2216. Cells were then pelleted and 30 μL supernatant was collected. A Luminex® Drop Array™ was performed using 5 μL of the supernatant. Human G-CSF, GM-CSF, IFN-α2, IL-10, IL-12p40, IL-12p70, IL-15, IL-1RA, IL-1a, IL-1b, IL-6, IL-7, IL-8, MIP-1b, TNF-α, TNF-β were tested by multiplexing (EMD Millipore) with DropArray-bead plates (Curiox) according to the manufacturer's instructions. Acquisition was performed using xPONENT 4.0 (Luminex) acquisition software, and data analysis was performed using Bio-Plex Manager 6.1.1 (Bio-Rad).

pDC [2] = test: Luminex Drop Array assay on sorted and stimulated pDC, culture supernatants; conditions: TLR7/8 or TLR9 stimulation; FIG. 2G and FIG. 13
Protocol: as §1

Compound: CCOCc1nc2c([nH]1)c(N)nc1ccccc12 [CL097]
- IFN-α production by pDC (pDC [1]): robust
- IL-12p40 secretion by pre-DC (pre-DC): readily secreted
- IFNα secretion by pure pDC cultures (pDC [2]): abundant secretion
- IL-12p40 secretion by pure pDC cultures (pDC [2]): but not IL-12p40

From patent US20210100897A1, “METHODS FOR THE STIMULATION OF DENDRITIC CELL (DC) PRECURSOR POPULATION "PRE-DC" AND THEIR USES THEREOF” (AGENCY FOR SCIENCE, TECHNOLOGY AND RESEARCH, priority 2017, published 2021)
